Like-named read-outs stand apart in the source and are kept apart here.
What was measured:
Ehrlich ascites cells = assay: Ehrlich Ascites tumor screen for antineoplastic activity; type: in vivo; settings: 20 mg/kg/day intraperitoneally, days 1-9; CF male mice; day 10
Method: Use of compounds according to this invention in Ehrlich Ascites tumor screens for antineoplastic activity has been investigated.
CF male mice (~25 g) were inoculated intraperitoneally on day 0 with 2×10^6 Ehrlich ascites cells. Compositions containing compounds of this invention were prepared in 0.05% polysorbate 80 by homogenation and injected intraperitoneally on days 1-9 at 20 mg/kg/day. On day 10, the mice were sacrificed and the cells from the peritoneal cavity harvested. The total ascites tumor and packed cell (ascrit) volumes were determined and used to calculate the percent inhibition according to the procedure described in C. Piantadosi et al., J. Pharm. Sci., 58, p. 821 (1969). […] Mercaptopurine and mephalan were used as positive controls in the screen. Other pharmaceutically acceptable carriers, diluents, adjuvants or dosages are readily ascertainable by the skilled artisan.

[1] = Thermal stability / vacuum distillation; type: physicochemical; settings: for thermal stability: higher temperature (>100° C.); for decomposition when subjected to vacuum distillation: oil-bath temperatures >100° C.
Method: The parent compound 1, trimethylamine-(ethylcarbamoyl)borane was prepared as previously described in B. F. Spielvogel et al., J. Am. Chem. Soc., 98 p. 5702 (1976) and I. H. Hall et al., J. Pharm. Sci., 68, p. 685 (1979) by refluxing (under dry N2) a solution of Me3 N.BH2 CN in CH2 Cl2 with 2 equivalents of triethyloxonium tetrafluoroborate for 24 hours. The compounds Me3 N.BH2 CN and triethyloxonium tetrafluoroborate are referred to in P. Wisian-Neilson et al., Inorg. Chem. 17, p. 2327 (1978) and H. Meerwein, Org. Synth., 46, p. 113 (1966), respectively. The resulting ethylnitrilium salt (not isolated) was hydrolyzed at 0° C. with 1N NaOH until basic and finally purified by vacuum distillation, giving a 75% yield. Dimethylamine-(ethylcarbamoyl)borane was made from 1 by a (CH3)2NH-exchange reaction in a pressure-glass vessel at room temperature for 8 days, and ca. 80% conversion (by ^1 H NMR) was obtained. Longer reaction periods (2-3 weeks) gave similar results. Amide 2 is readily purified by washing a CH2 Cl2 solution of the crude mixture with a small quantity of water whereby 1 is removed. The bulk CH2 Cl2 solution containing the product was dried, and rotary evaporation of the solvent gave 78% yield. Finally, the product was distilled under reduced pressure to get an analytical sample. […] The methylamine-(ethylcarbamoyl)borane and ammonia-(ethylcarbamoyl)borane were similarly prepared from 1 by exchange reactions with CH3 NH2 and NH3, respectively, in a glass pressure reaction vessel at room temperature for 1 week. The crude amide was purified by recrystallization from CH2 Cl2 /pentane, giving a 65% yield, whereas the ammonia analogue was recrystallized from distilled water, giving a 60% yield.

[2] = in mice; cited from earlier work
tumor = settings: in mice; cited from earlier work
Toxicity in BALB/C mice = type: in vivo
[3] = Tissue distribution study of boron (boron neutron capture therapy); type: in vivo, BALB/c mice; settings: mouse, ip, 40 mg/kg, single saline i.p. injection, 40 μg boron per gram body weight; for concentration at 1 h: 1 hr post injection
Method: (§1) In a tissue distribution study relating to treatment of tumor tissue in an animal by boron neutron capture therapy, a representative compound of this invention MeNH2.BH2 C(O)NHEt was administered in a single saline intraperitoneal injection sufficient to provide 40 μg boron per gram body weight to BALB/c mice carrying Harding-Passey melanorna.

Harding-Passey melanorna = assay: as above; type: in vivo, BALB/c mice; settings: for Boron uptake, blood / Boron uptake, brain / Boron uptake, tumor: single saline i.p. injection, 40 μg boron per gram body weight
Method: as §1

[4] = animal model studies; cited from earlier work
[5] = animal model studies; cited from earlier work; remark: listed apart in the source
[6] = 1 hr post injection, 40 mg/kg, 60 min

For `CCNC(=O)[BH2-][NH+](C)C` [Me2 NH.BH2 C(O)NHEt, Dimethylamine-(Ethylcarbamoyl)borane], the “percent inhibition (ascites tumor and packed cell volumes)” value (Ehrlich ascites cells) was 72.2%, the thermal stability [1] was “thermally unstable” and the “decomposition when subjected to vacuum distillation” value [1] was “considerable decomposition”.
For `C[N+](C)(C)[BH2-]C(=O)O` [Me3 N.BH2 COOH], the antihyperlipidemic activity [2] is given as “significant” and the antitumor activity (tumor) is given as “significant”.
With `CCNC(=O)[BH2-][NH2+]C` [MeNH2.BH2 C(O)NHEt, Methylamine-(ethylcarbamoyl)borane] the solubility (Solubility) was “good”, the toxicity (Toxicity in BALB/C mice) was “not toxic” and the “percent inhibition (ascites tumor and packed cell volumes)” value (Ehrlich ascites cells) was 91%. The concentration at 1 h ([3]; blood, read-out: Boron uptake, blood) was 54800 ng/g, the concentration at 1 h ([3]; brain, read-out: Boron uptake, brain) was 45300 ng/g and the concentration at 1 h ([3]; tumor, read-out: Boron uptake, tumor) was 51300 ng/g. The concentration at 12 h ([3]; tumor, 12 hr post injection, read-out: Boron uptake, tumor) was 3800 ng/g, the “Boron uptake, blood” value (Harding-Passey melanorna; [6]) was 54.4 μg B per gram tissue and the “Boron uptake, brain” value (Harding-Passey melanorna; [6]) was 39.8 μg B per gram tissue. The “Boron uptake, tumor” value (Harding-Passey melanorna; [6]) was 48.7 μg B per gram tissue, the “Boron uptake, blood” value (Harding-Passey melanorna; 12 hr post injection) was 0 μg B per gram tissue and the “Boron uptake, brain” value (Harding-Passey melanorna; 12 hr post injection) was 0 μg B per gram tissue. The “Boron uptake, tumor” value (Harding-Passey melanorna; 12 hr post injection, 40 mg/kg, 720 min) was 2.8 μg B per gram tissue, the “uptake for conventional therapy, measured against the standard in clinical use Na2 B12 H11 SH” value (Harding-Passey melanorna; in words) was “inadequate” and the “concentration of the boron-containing compound in the tumor tissue” value (Harding-Passey melanorna; in words, BALB/c mice) was “some preferential differential concentration”.
For `CCNC(=O)[BH2-][N+](C)(C)C` [Trimethylamine-(ethylcarbamoyl)borane, Trimethylamine-(Ethylcarbamoyl)borane], the antiarthritic activity [4] is listed as “significant”, the antihyperlipidemic activity [2] is listed as “significant” and the antitumor activity (tumor) is listed as “significant”. The antiinflammatory activity [5] was “significant”, the thermal stability [1] was “thermally unstable” and the “decomposition when subjected to vacuum distillation” value [1] was “considerable decomposition”.

From patent US4587359A, “Amine-carbamoylborane adducts” (The United States of America as represented by the Secrtary …, priority 1984, dated 1986)
